Assay results: article PMC5218480 (PLoS ONE, 2017)

System: MV-4-11 cells
Assay: Gene expression microarray analysis (Affymetrix PrimeView) and GSEA
Format: cell-based, human
Set-up: RFU PODN (11730768_x_at) / Fold change /veh PODN (11730768_x_at) / RFU LINC00158 (11744669_a_at) / Fold change /veh LINC00158 (11744669_a_at) / RFU DUSP10 (11751237_a_at) / Fold change /veh DUSP10 (11751237_a_at) / RFU ID3 (11757404_x_at) / Fold change /veh ID3 (11757404_x_at) / RFU PLEKHG5 (11737974_s_at) / Fold change /veh PLEKHG5 (11737974_s_at) / RFU LRRC4B (11730491_at) / Fold change /veh LRRC4B (11730491_at) / RFU GIMAP4 (11747438_a_at) / Fold change /veh GIMAP4 (11747438_a_at) / RFU KRT8 (11758183_x_at) / Fold change /veh KRT8 (11758183_x_at) / RFU CNN1 (11734310_a_at) / Fold change /veh CNN1 (11734310_a_at) / RFU VPS37D (11726825_at) / Fold change /veh VPS37D (11726825_at) / RFU C10orf10 (11716522_x_at) / Fold change /veh C10orf10 (11716522_x_at) / RFU KIR2DL2 /// KIR2DL4 /// KIR2DL5A /// KIR2DL5B /// KIR2DS1 /// KIR2DS2 /// KIR2DS3 /// KIR2DS4 /// KIR3DL3 /// KIR3DL3 /// KIR3DS1 (11738374_at) / Fold change /veh KIR2DL2 /// KIR2DL4 /// KIR2DL5A /// KIR2DL5B /// KIR2DS1 /// KIR2DS2 /// KIR2DS3 /// KIR2DS4 /// KIR3DL3 /// KIR3DL3 /// KIR3DS1 (11738374_at) / RFU C1QL1 (11718748_at) / Fold change /veh C1QL1 (11718748_at) / RFU TMPRSS4 (11747572_a_at) / Fold change /veh TMPRSS4 (11747572_a_at) / RFU HAMP (11756126_x_at) / Fold change /veh HAMP (11756126_x_at) / RFU RNFT2 (11725882_a_at) / Fold change /veh RNFT2 (11725882_a_at) / RFU NR4A2 (11747474_a_at) / Fold change /veh NR4A2 (11747474_a_at) / RFU ABCC12 (11746883_a_at) / Fold change /veh ABCC12 (11746883_a_at) / RFU TMEM136 (11760407_x_at) / Fold change /veh TMEM136 (11760407_x_at) / RFU CLDN22 /// WWC2 (11732394_at) / Fold change /veh CLDN22 /// WWC2 (11732394_at) / RFU HLA-DPB1 (11760878_x_at) / Fold change /veh HLA-DPB1 (11760878_x_at) / RFU SPINT1 (11716480_a_at) / Fold change /veh SPINT1 (11716480_a_at) / RFU GAP43 (11754022_s_at) / Fold change /veh GAP43 (11754022_s_at) / RFU A4GNT (11735810_at) / Fold change /veh A4GNT (11735810_at) / RFU PRB3 (11715151_x_at) / Fold change /veh PRB3 (11715151_x_at) / RFU TUBB4B (11761932_at) / Fold change /veh TUBB4B (11761932_at) / RFU CAPN14 (11732068_a_at) / Fold change /veh CAPN14 (11732068_a_at) / RFU TMCC2 (11721928_a_at) / Fold change /veh TMCC2 (11721928_a_at) / RFU IRGQ (11745062_a_at) / Fold change /veh IRGQ (11745062_a_at) / RFU FAM174B (11720279_a_at) / Fold change /veh FAM174B (11720279_a_at) / RFU TMPRSS4 (11748680_a_at) / Fold change /veh TMPRSS4 (11748680_a_at) / RFU FAM212B (11763350_a_at) / Fold change /veh FAM212B (11763350_a_at) / RFU PLEKHG5 (11743358_a_at) / Fold change /veh PLEKHG5 (11743358_a_at) / RFU ZSCAN30 (11745921_a_at) / Fold change /veh ZSCAN30 (11745921_a_at) / RFU CMKLR1 (11741424_a_at) / Fold change /veh CMKLR1 (11741424_a_at) / RFU LOC101060620 /// MAPK8IP1 (11723275_at) / Fold change /veh LOC101060620 /// MAPK8IP1 (11723275_at) / RFU SPTSSB (11747773_x_at) / Fold change /veh SPTSSB (11747773_x_at) / RFU PRSS12 (11739890_at) / Fold change /veh PRSS12 (11739890_at) / RFU BIN1 (11741810_x_at) / Fold change /veh BIN1 (11741810_x_at) / RFU WNT11 (11732464_a_at) / Fold change /veh WNT11 (11732464_a_at) / RFU C10orf10 (11716521_a_at) / Fold change /veh C10orf10 (11716521_a_at) / RFU C5orf56 (11738089_at) / Fold change /veh C5orf56 (11738089_at) / RFU CYB561 (11721691_x_at) / Fold change /veh CYB561 (11721691_x_at) / RFU ANKRD19P (11752326_a_at) / Fold change /veh ANKRD19P (11752326_a_at) / RFU OR2T12 /// OR2T33 /// OR2T8 (11738714_s_at) / Fold change /veh OR2T12 /// OR2T33 /// OR2T8 (11738714_s_at) / RFU VCAN (11748164_a_at) / Fold change /veh VCAN (11748164_a_at) / RFU JSRP1 (11732532_at) / Fold change /veh JSRP1 (11732532_at) / RFU KRTAP10-11 (11738290_x_at) / Fold change /veh KRTAP10-11 (11738290_x_at) / RFU MYO3A (11730013_a_at) / Fold change /veh MYO3A (11730013_a_at) / RFU EBF3 (11725865_a_at) / Fold change /veh EBF3 (11725865_a_at) / RFU CAMK2N1 (11719241_x_at) / Fold change /veh CAMK2N1 (11719241_x_at) / RFU C5orf56 (11738088_a_at) / Fold change /veh C5orf56 (11738088_a_at) / RFU OLFML3 (11715873_a_at) / Fold change /veh OLFML3 (11715873_a_at) / RFU LOC100653217 /// NTM (11731650_a_at) / Fold change /veh LOC100653217 /// NTM (11731650_a_at) / RFU MAPK11 (11762145_a_at) / Fold change /veh MAPK11 (11762145_a_at) / RFU FIZ1 (11724087_x_at) / Fold change /veh FIZ1 (11724087_x_at) / RFU OASL (11726364_x_at) / Fold change /veh OASL (11726364_x_at) / RFU SOX15 (11748057_x_at) / Fold change /veh SOX15 (11748057_x_at) / RFU CD79A (11719716_a_at) / Fold change /veh CD79A (11719716_a_at) / RFU HIST1H1D (11736915_at) / Fold change /veh HIST1H1D (11736915_at) / RFU CASKIN2 (11723855_a_at) / Fold change /veh CASKIN2 (11723855_a_at) / RFU LOC730098 (11760151_x_at) / Fold change /veh LOC730098 (11760151_x_at) / RFU OR4N2 (11742367_at) / Fold change /veh OR4N2 (11742367_at) / RFU PRRT2 (11749266_a_at) / Fold change /veh PRRT2 (11749266_a_at) / RFU SNX32 (11753110_a_at) / Fold change /veh SNX32 (11753110_a_at) / RFU CDHR5 (11726645_a_at) / Fold change /veh CDHR5 (11726645_a_at) / RFU RCAN1 (11760418_a_at) / Fold change /veh RCAN1 (11760418_a_at) / RFU FAM167A (11723789_a_at) / Fold change /veh FAM167A (11723789_a_at) / RFU FAM26E (11764081_at) / Fold change /veh FAM26E (11764081_at) / RFU ISYNA1 (11749810_s_at) / Fold change /veh ISYNA1 (11749810_s_at) / RFU ACY1 (11761880_at) / Fold change /veh ACY1 (11761880_at) / RFU 11764098_at / Fold change /veh 11764098_at / RFU SAMD14 (11745864_x_at) / Fold change /veh SAMD14 (11745864_x_at) / RFU NPB (11741838_a_at) / Fold change /veh NPB (11741838_a_at) / RFU TMPRSS6 (11731388_a_at) / Fold change /veh TMPRSS6 (11731388_a_at) / RFU KRTAP10-2 (11738614_at) / Fold change /veh KRTAP10-2 (11738614_at) / RFU ARHGAP8 /// PRR5-ARHGAP8 (11727945_x_at) / Fold change /veh ARHGAP8 /// PRR5-ARHGAP8 (11727945_x_at) / RFU KRTAP5-7 /// NADSYN1 (11734609_at) / Fold change /veh KRTAP5-7 /// NADSYN1 (11734609_at) / RFU RASL12 (11751679_a_at) / Fold change /veh RASL12 (11751679_a_at) / RFU CDKN2B (11736163_a_at) / Fold change /veh CDKN2B (11736163_a_at) / RFU PRF1 (11729649_at) / Fold change /veh PRF1 (11729649_at) / RFU, ZNF638 /// ZNF638-IT1 / Fold change vs veh, ZNF638 /// ZNF638-IT1 / RFU, PANK3 / Fold change vs veh, PANK3 / RFU, SH3YL1 / Fold change vs veh, SH3YL1 / RFU, ZEB2 / Fold change vs veh, ZEB2 / RFU, NRIP1 / Fold change vs veh, NRIP1 / RFU, PTTG1IP / Fold change vs veh, PTTG1IP / RFU, CAPN2 / Fold change vs veh, CAPN2 / RFU, MED14 / Fold change vs veh, MED14 / RFU, SNORA58 / Fold change vs veh, SNORA58 / RFU, C1orf63 / Fold change vs veh, C1orf63 / RFU, LRRFIP1 / Fold change vs veh, LRRFIP1 / RFU, NDUFAF7 / Fold change vs veh, NDUFAF7 / RFU, SLC12A2 / Fold change vs veh, SLC12A2 / RFU, IBTK / Fold change vs veh, IBTK / RFU, ESF1 / Fold change vs veh, ESF1 / Fold change vs veh, TMEM50B / RFU, TAOK1 / Fold change vs veh, TAOK1 / RFU, ACBD3 / Fold change vs veh, ACBD3 / RFU, TMA16 / Fold change vs veh, TMA16 / RFU, RWDD3 / Fold change vs veh, RWDD3 / RFU, BCAT1 / Fold change vs veh, BCAT1 / RFU, EDEM3 / Fold change vs veh, EDEM3 / RFU, TMEM33 / Fold change vs veh, TMEM33 / RFU, WDR75 / Fold change vs veh, WDR75 / RFU, AHCTF1 / Fold change vs veh, AHCTF1 / RFU, TFRC / Fold change vs veh, TFRC / RFU, ZDHHC17 / Fold change vs veh, ZDHHC17 / RFU, NOM1 / Fold change vs veh, NOM1 / RFU, ARL8B / Fold change vs veh, ARL8B / RFU, ZBTB11 / Fold change vs veh, ZBTB11 / RFU, TAMM41 / Fold change vs veh, TAMM41 / RFU, KIAA1704 /// LOC100996395 / Fold change vs veh, KIAA1704 /// LOC100996395 / RFU, ING1 / Fold change vs veh, ING1 / RFU, TRMT61B / Fold change vs veh, TRMT61B / RFU, FUBP3 / Fold change vs veh, FUBP3 / RFU, TP53 / Fold change vs veh, TP53 / RFU, TNKS2 / Fold change vs veh, TNKS2 / RFU, ZFP14 / Fold change vs veh, ZFP14 / RFU, ACTR2 / Fold change vs veh, ACTR2 / RFU, PPP3R1 / Fold change vs veh, PPP3R1 / RFU, PIK3R1 / Fold change vs veh, PIK3R1 / RFU, HNRNPA1 / Fold change vs veh, HNRNPA1 / RFU, RNF170 / Fold change vs veh, RNF170 / RFU, ZNF28 / Fold change vs veh, ZNF28 / RFU, RNGTT / Fold change vs veh, RNGTT / RFU, OGT / Fold change vs veh, OGT / RFU, BRD1 / Fold change vs veh, BRD1 / RFU, MARS / Fold change vs veh, MARS / RFU, ZNF655 / Fold change vs veh, ZNF655 / RFU, FAHD1 / Fold change vs veh, FAHD1 / RFU, BDP1 / Fold change vs veh, BDP1 / RFU, LRRCC1 / Fold change vs veh, LRRCC1 / RFU, ARID1A / Fold change vs veh, ARID1A / RFU, ZNF146 / Fold change vs veh, ZNF146 / RFU, ZNF330 / Fold change vs veh, ZNF330 / RFU, GPN3 / Fold change vs veh, GPN3 / RFU, C9orf123 / Fold change vs veh, C9orf123 / RFU, N4BP2L2 / Fold change vs veh, N4BP2L2 / RFU, ARFIP1 / Fold change vs veh, ARFIP1 / RFU, FAM179B / Fold change vs veh, FAM179B / RFU, BCL10 / Fold change vs veh, BCL10 / RFU, UHRF1BP1L / Fold change vs veh, UHRF1BP1L / RFU, BET1 / Fold change vs veh, BET1 / RFU, CNOT2 / Fold change vs veh, CNOT2 / RFU, ZNF268 / Fold change vs veh, ZNF268 / Fold change vs veh, ZNF507 / RFU, DGCR2 / Fold change vs veh, DGCR2 / RFU, WDSUB1 / Fold change vs veh, WDSUB1 / Fold change vs veh, HSP90B1 /// MIR3652 / RFU, ADSS / Fold change vs veh, ADSS / RFU, GK / Fold change vs veh, GK / RFU, ZNF148 / Fold change vs veh, ZNF148 / RFU, TAF9 / Fold change vs veh, TAF9 / RFU, SLC1A5 / Fold change vs veh, SLC1A5 / RFU, SLMO2 / Fold change vs veh, SLMO2 / RFU, ABCC4 / Fold change vs veh, ABCC4 / RFU, LOC101060439 /// RAP1B / Fold change vs veh, LOC101060439 /// RAP1B / RFU, RFX7 / Fold change vs veh, RFX7 / RFU, GTPBP10 / Fold change vs veh, GTPBP10 / RFU, CNEP1R1 / Fold change vs veh, CNEP1R1 / RFU, BIVM-ERCC5 /// ERCC5 / Fold change vs veh, BIVM-ERCC5 /// ERCC5 / RFU, ILF3 / Fold change vs veh, ILF3 / RFU 11762660_at / Fold change /veh 11762660_at / RFU VCAN (11757783_s_at) / Fold change /veh VCAN (11757783_s_at) / RFU DDX43 (11728927_at) / Fold change /veh DDX43 (11728927_at) / RFU KRT8 (11758188_x_at) / Fold change /veh KRT8 (11758188_x_at) / RFU NKD1 (11759106_at) / Fold change /veh NKD1 (11759106_at) / RFU SRD5A1 (11742802_a_at) / Fold change /veh SRD5A1 (11742802_a_at) / RFU TPSAB1 /// TPSB2 (11721975_s_at) / Fold change /veh TPSAB1 /// TPSB2 (11721975_s_at) / RFU GSTM3 (11746129_a_at) / Fold change /veh GSTM3 (11746129_a_at) / RFU IL23R (11737362_x_at) / Fold change /veh IL23R (11737362_x_at) / RFU TMEM51 (11727254_a_at) / Fold change /veh TMEM51 (11727254_a_at) / RFU PIWIL2 (11732686_x_at) / Fold change /veh PIWIL2 (11732686_x_at) / RFU ORM1 (11744905_x_at) / Fold change /veh ORM1 (11744905_x_at) / RFU CCDC152 (11743942_at) / Fold change /veh CCDC152 (11743942_at) / RFU ECM1 (11717891_a_at) / Fold change /veh ECM1 (11717891_a_at) / RFU IL23R (11748794_a_at) / Fold change /veh IL23R (11748794_a_at) / RFU TNFAIP8L3 (11732012_x_at) / Fold change /veh TNFAIP8L3 (11732012_x_at) / RFU MBOAT4 (11741988_at) / Fold change /veh MBOAT4 (11741988_at) / RFU 11764193_at / Fold change /veh 11764193_at / RFU TMEM53 (11763286_at) / Fold change /veh TMEM53 (11763286_at) / RFU MAGEB2 (11727129_at) / Fold change /veh MAGEB2 (11727129_at) / RFU TMEM200A (11744735_a_at) / Fold change /veh TMEM200A (11744735_a_at) / RFU CCDC152 (11751479_a_at) / Fold change /veh CCDC152 (11751479_a_at) / RFU FAM211A (11726209_a_at) / Fold change /veh FAM211A (11726209_a_at) / RFU RGS16 (11746705_a_at) / Fold change /veh RGS16 (11746705_a_at) / RFU VCAN (11755009_s_at) / Fold change /veh VCAN (11755009_s_at) / RFU RHOB (11743442_s_at) / Fold change /veh RHOB (11743442_s_at) / RFU RGS16 (11720943_a_at) / Fold change /veh RGS16 (11720943_a_at) / RFU RGS16 (11720944_at) / Fold change /veh RGS16 (11720944_at) / RFU, VPS4B / Fold change vs veh, VPS4B / RFU, CREB1 / Fold change vs veh, CREB1 / RFU, DNAJC13 / Fold change vs veh, DNAJC13 / RFU, GNAQ / Fold change vs veh, GNAQ / RFU, CDK5R1 / Fold change vs veh, CDK5R1 / RFU, ZRANB3 / Fold change vs veh, ZRANB3 / RFU, CUL4A / Fold change vs veh, CUL4A / RFU, CCNY / Fold change vs veh, CCNY / RFU, UFL1 / Fold change vs veh, UFL1 / RFU, COG3 / Fold change vs veh, COG3 / RFU, DIAPH2 / Fold change vs veh, DIAPH2 / RFU, SKA2 / Fold change vs veh, SKA2 / RFU, AFF3 / Fold change vs veh, AFF3 / RFU, LMF1 / Fold change vs veh, LMF1 / RFU, IPO11 / Fold change vs veh, IPO11 / RFU, DFFB / Fold change vs veh, DFFB / RFU, FOXP1 / Fold change vs veh, FOXP1 / RFU, CARD8 / Fold change vs veh, CARD8 / RFU, STRN3 / Fold change vs veh, STRN3 / RFU, ADK / Fold change vs veh, ADK / RFU, RASSF2 / Fold change vs veh, RASSF2 / RFU, WIPF1 / Fold change vs veh, WIPF1 / RFU, LARP1B / Fold change vs veh, LARP1B / RFU, RASA1 / Fold change vs veh, RASA1 / RFU, RB1 / Fold change vs veh, RB1 / RFU, PPFIA1 / Fold change vs veh, PPFIA1 / RFU, MAT2A / Fold change vs veh, MAT2A / RFU, CCT5 / Fold change vs veh, CCT5 / RFU, WDR92 / Fold change vs veh, WDR92 / RFU, CUX1 / Fold change vs veh, CUX1 / RFU, TTC7A / Fold change vs veh, TTC7A / RFU, TMEM135 / Fold change vs veh, TMEM135 / RFU, DEPTOR / Fold change vs veh, DEPTOR / RFU, CPM / Fold change vs veh, CPM / RFU, DNAJB6 / Fold change vs veh, DNAJB6 / RFU, CACNA2D3 / Fold change vs veh, CACNA2D3 / RFU, DTX4 / Fold change vs veh, DTX4 / RFU, TFCP2 / Fold change vs veh, TFCP2 / RFU, GMCL1 /// GMCL1P1 / Fold change vs veh, GMCL1 /// GMCL1P1 / RFU, AEBP2 / Fold change vs veh, AEBP2 / RFU, SNHG1 /// SNORD22 /// SNORD25 /// SNORD26 /// SNORD27 /// SNORD28 /// SNORD29 /// SNORD31 / Fold change vs veh, SNHG1 /// SNORD22 /// SNORD25 /// SNORD26 /// SNORD27 /// SNORD28 /// SNORD29 /// SNORD31 / Fold change (Aza/veh), C12orf56 (ProbeSet 11735607_a_at) / Fold change (ACY-1035/veh), C12orf56 (ProbeSet 11735607_a_at) / Fold change (Aza/veh), FGFR1OP (ProbeSet 11751329_s_at) / Fold change (ACY-1035/veh), FGFR1OP (ProbeSet 11751329_s_at) / Fold change (Aza/veh), VPS36 (ProbeSet 11739960_a_at) / Fold change (ACY-1035/veh), VPS36 (ProbeSet 11739960_a_at) / RFU SYPL1 (11715823_x_at) / Fold change /veh SYPL1 (11715823_x_at) / RFU IGFBP7 (11715501_s_at) / Fold change /veh IGFBP7 (11715501_s_at) / RFU REEP3 (11722064_at) / Fold change /veh REEP3 (11722064_at) / RFU IGLL1 (11728026_x_at) / Fold change /veh IGLL1 (11728026_x_at): dose or concentration left out as unconfirmed
Settings: MV-4-11 cells, 48 hours

`Nc1ccc(-c2cccs2)cc1NC(=O)c1ccc2c(c1)cc(C1CC1)n2CCN1CCOCC1` [ACY-1035] was tested, and the “Fold change /veh 11764098_at” value was 1.17.
